# Reference: PMC11416981 (Frontiers in Pharmacology, 2024)
# Tests used:
# Assay type in all cases: in vivo, humans
# [1] = Teicoplanin concentration in peritoneal dialysis effluent (PDE) by HPLC
# Method: (§1) According to the patient’s PD plan, teicoplanin for injection was evenly distributed into each bag of PD fluid before the patient’s PD procedure to ensure that each bag of dialysis fluid entering the peritoneal cavity contained teicoplanin. […] The number of dialysis times per day is determined by the peritoneal function of each peritoneal dialysis patient.
# (§2) All patients received peritoneal dialysate and serum samples. […] Serum samples were collected on the 4th day prior to drug administration. Blood samples were centrifuged at 3,000 rpm for 10 minutes. The upper serum layer was then transferred into labeled EP tubes and stored at −80°C. Peritoneal fluid samples were collected daily after the PD procedure. The peritoneal fluid bag was disinfected with iodine, and peritoneal effluent was withdrawn using a sterile syringe and stored at −80°C.
# (§3) An Agilent Zorbax SB-C18 column (4.6 × 250 mm, 5 μm) was used. Methyl p-hydroxybenzoate served as the internal standard. The column temperature was kept at 35°C. The mobile phase comprised acetonitrile - 0.01 mol/L potassium dihydrogen phosphate (26:74, v/v, pH = 2.8 adjusted by phosphoric acid). A flow rate of 1 mL/min was set, with an injection volume of 40 μL. UV detection was conducted at 215 nm, while the column temperature remained at 40°C. The pretreatment and chromatographic methods for detecting teicoplanin in serum and PD effluent are the same (Supplement Material).
# Using multiple 1.5 mL centrifuge tubes, 360 μL of bovine serum is added to each tube. Subsequently, 40 μL of the respective standard curve series working solution, 30 μL of the internal standard solution, and 600 μL of acetonitrile are added. The contents are thoroughly mixed by vortexing, centrifuged at 14,000 rpm for 8 minutes, and 100 μL of the supernatant is transferred to sample vials for HPLC analysis.
# Perform linear regression fitting using the weighted (1/X^2) least squares method, resulting in the standard curve regression equation y = 0.0262x-0.0124 (R^2 = 0.9994).
# [2] = system: PDAP patients with gram-positive bacteria cultured from PD effluent; experiment: Efficacy of intraperitoneal teicoplanin in PDAP patients (PD effluent analysis, clinical symptoms, infection markers)
# From the text: According to the ISPD guidelines recommendation ([Li et al., 2022]), doctors can establish a diagnosis of PDAP. […] Participants should not have taken part in other clinical trials in the past 3 months, understand the trial’s purpose, willingly participate, and sign informed consent forms.
# as §1
# […] This assessment considered primary efficacy endpoints, secondary efficacy endpoints, and primary safety endpoints. The primary efficacy endpoints in this study are: 1) White blood cell count in PD effluent (p-WBC) < 100 × 10^6/L; 2) Percentage of neutrophilic granulocytes in PD effluent (p-NE%) < 50%; 3) Resolution of abdominal pain, absence of fever, and clarity of PD effluent in clinical signs of patients. According to ISPD guidelines, meeting all three criteria or two of the three constitutes a cure, while meeting one is classified as partial relief. The efficacy calculation involves determining the proportion of cured and partially relieved patients among the total.
# (§4) The secondary efficacy endpoints of this study mainly involve infectious markers: C-reactive protein (CRP) and procalcitonin (PCT); Hematological parameters: white blood cell count (b-WBC), blood neutrophilic granulocyte percentage (b-NE%), and hemoglobin (Hb); Renal function markers: serum creatinine (Scr), urea, uric acid (UA), and albumin (ALB).
# However, most patients show significant improvement in clinical symptoms within 1 week.
# [3] = system: PDAP patients; experiment: Renal function, blood lipid and electrolyte indicators before and after teicoplanin treatment; conditions: post-treatment group n = 36
# From the text: as §4
# There were no significant changes in indicators such as Scr after medication compared to before treatment, and there was no significant difference in the patients' renal function (Table S3).
# [4] = Serum teicoplanin concentration by HPLC; conditions: Uncured group n = 7, serum collected on the 4th day prior to drug administration, intraperitoneal 0.2 g daily, HPLC-UV 215 nm, mean ± SD
# Method: as §2, §3
# [5] = Cured group n = 29, intraperitoneal 0.2 g daily, HPLC-UV, mean (Q25, Q75)
# [6] = Cured group n = 29, intraperitoneal 0.2 g daily, HPLC-UV, mean ± SD, SD
# [7] = Uncured group n = 7, intraperitoneal 0.2 g daily, HPLC-UV, mean ± SD, SD
# [8] = Uncured group n = 7, mean (Q25, Q75)
# [9] = Uncured group n = 7, mean ± SD, SD
# [10] = number of 36 PDAP patients, intraperitoneal 0.2 g daily, after 7 days
substance,measurement,setting,value
teicoplanin,PDE teicoplanin concentration on Day 5,"[1]; 24-h urine volume 0–200 mL, n = 17, M50 (M25, M75)","12.85 (8.12, 21.23) mg/L"
same,PDE teicoplanin concentration on Day 5,"[1]; 24-h urine volume 201–537 mL, n = 10, M50 (M25, M75)","10.17 (7.38, 24.59) mg/L"
same,PDE teicoplanin concentration on Day 5,"[1]; 24-h urine volume >537 mL, n = 9, M50 (M25, M75)","23.16 (18.89, 39.45) mg/L"
same,Day 3 PDE teicoplanin concentration,[1]; [5],"14.17 (6.80, 22.93) mg/L"
same,Day 7 PDE teicoplanin concentration,[1]; [5],"20.89 (9.45, 30.23) mg/L"
same,Day 1 PDE teicoplanin concentration,[1]; [6],13.65 ± 3.26 mg/L
same,Day 5 PDE teicoplanin concentration,[1]; [6],18.98 ± 2.43 mg/L
same,Day 7 PDE teicoplanin concentration,"[1]; Uncured group n = 7, intraperitoneal 0.2 g daily, HPLC-UV, mean (Q25, Q75)","11.43 (8.42, 13.21) mg/L"
same,Day 1 PDE teicoplanin concentration,[1]; [7],11.48 ± 3.39 mg/L
same,Day 5 PDE teicoplanin concentration,[1]; [7],12.07 ± 2.68 mg/L
same,day-5 PDE teicoplanin concentration,"[1]; age 49 ~ 61 years old, n = 9, mean ± SD, SD",10.18 ± 1.68 mg/L
same,day-5 PDE teicoplanin concentration,"[1]; age 62 ~ 71 years old, n = 9, mean ± SD, SD",20.19 ± 8.62 mg/L
same,day-5 PDE teicoplanin concentration,"[1]; age > 71 years old, n = 9, mean ± SD, SD",29.46 ± 12.29 mg/L
same,day-5 PDE teicoplanin concentration,"[1]; age ≤ 48 years old, n = 9, mean ± SD, SD",19.46 ± 10.28 mg/L
same,day-5 PDE teicoplanin concentration,"[1]; body weight 54-60 kg, n = 9, mean ± SD, SD",20.19 ± 6.74 mg/L
same,day-5 PDE teicoplanin concentration,"[1]; body weight 61-76.5 kg, n = 8, mean ± SD, SD",15.37 ± 6.39 mg/L
same,day-5 PDE teicoplanin concentration,"[1]; body weight ≤ 53 kg, n = 10, mean ± SD, SD",24.23 ± 7.34 mg/L
same,day-5 PDE teicoplanin concentration,"[1]; body weight ≥ 76.5kg, n = 9, mean ± SD, SD",19.27 ± 7.38 mg/L
same,day-5 PDE teicoplanin concentration,"[1]; both G1.5% and G2.5% low calcium peritoneal dialysate, n = 8, mean ± SD, SD",19.47 ± 9.45 mg/L
same,PDE teicoplanin concentration on Day 5,"[1]; daily PD frequency 1–3 times, n = 5, mean ± SD, SD",38.71 ± 16.36 mg/L
same,PDE teicoplanin concentration on Day 5,"[1]; daily PD frequency 4 times, n = 18, mean ± SD, SD",12.89 ± 7.28 mg/L
same,PDE teicoplanin concentration on Day 5,"[1]; daily PD frequency 5–6 times, n = 13, mean ± SD, SD",17.67 ± 10.23 mg/L
same,day-5 PDE teicoplanin concentration,"[1]; eGFR 4.726 ~ 6.35 mL/min, n = 9, mean ± SD, SD",28.39 ± 11.47 mg/L
same,day-5 PDE teicoplanin concentration,"[1]; eGFR 6.36 ~ 8.524 mL/min, n = 9, mean ± SD, SD",18.26 ± 7.45 mg/L
same,day-5 PDE teicoplanin concentration,"[1]; eGFR ≤ 4.725 mL/min, n = 9, mean ± SD, SD",16.05 ± 5.28 mg/L
same,day-5 PDE teicoplanin concentration,"[1]; eGFR ≥ 8.525 mL/min, n = 9, mean ± SD, SD",21.21 ± 9.21 mg/L
same,day-5 PDE teicoplanin concentration,"[1]; females, n = 14, mean ± SD, SD",18.22 ± 6.29 mg/L
same,day-5 PDE teicoplanin concentration,"[1]; fibrinogen 4.2 to 5.2 g/L, n = 9, mean ± SD, SD",20.72 ± 8.16 mg/L
same,day-5 PDE teicoplanin concentration,"[1]; fibrinogen 5.3 to 6.54 g/L, n = 7, mean ± SD, SD",17.35 ± 6.45 mg/L
same,day-5 PDE teicoplanin concentration,"[1]; fibrinogen ≤ 4.1 g/L, n = 9, mean ± SD, SD",30.56 ± 12.32 mg/L
same,day-5 PDE teicoplanin concentration,"[1]; fibrinogen ≥ 6.55 g/L, n = 11, mean ± SD, SD",14.87 ± 7.07 mg/L
same,day-5 PDE teicoplanin concentration,"[1]; males, n = 22, mean ± SD, SD",19.25 ± 7.89 mg/L
same,day-5 PDE teicoplanin concentration,"[1]; only G1.5% low calcium peritoneal dialysate, n = 10, mean ± SD, SD",19.24 ± 10.23 mg/L
same,day-5 PDE teicoplanin concentration,"[1]; only G2.5% low calcium peritoneal dialysate, n = 18, mean ± SD, SD",24.48 ± 9.23 mg/L
same,CRP after treatment,[2]; [8],"34.00 (5.20, 69.38) mg/L"
same,PCT after treatment,[2]; [8],"0.66 (0.29, 2.87) ng/mL"
same,p-WBC after treatment,[2]; [8],"159.00 (112.5, 1023.5) *10^6/L"
same,b-NE% after treatment,[2]; [9],71.08 ± 25.08%
same,b-WBC after treatment,[2]; [9],6.40 ± 2.28 *10^9/L
same,p-NE% after treatment,[2]; [9],58.86 ± 33.91%
same,Fever,"[2]; cases (%) in post-treatment group n = 36, pre-treatment 8 (22.3%)",1 (2.7%)
same,Diarrhea,"[2]; cases (%) in post-treatment group n = 36, pre-treatment 9 (25%)",1 (2.7%)
same,Peritoneal dialysate turbidity,"[2]; cases (%) in post-treatment group n = 36, pre-treatment 26 (72.2%)",2 (5.6%)
same,Abdominal pain,"[2]; cases (%) in post-treatment group n = 36, pre-treatment 31 (86.1%)",3 (8.3%)
same,overall treatment success rate,"[2]; cured plus partial remission among 36 PDAP patients, intraperitoneal 0.2 g daily, assessed after 7 days",88.9%
same,patients with treatment failure,"[2]; number of 36 PDAP patients (1 died, 3 permanently transitioned to hemodialysis)",4
same,patients cured,[2]; [10],29
same,patients in partial remission,[2]; [10],3
same,p-Lym%,"[2]; post-treatment group n = 36, after 7 days, mean (Q25, Q75), pre-treatment 14.55 (9.85, 29.1)","72.85 (45.95, 86.45) %"
same,p-Lym (lymphocyte count in PD effluent),"[2]; post-treatment group n = 36, after 7 days, mean (Q25, Q75), pre-treatment 196.00 (91.15, 444.62)","14.00 (6.25, 49.75) *10^6/L"
same,p-NE,"[2]; post-treatment group n = 36, after 7 days, mean (Q25, Q75), pre-treatment 1099.60 (418.57, 3333.62)","4.00 (1.00, 18.00) *10^6/L"
same,p-WBC (white blood cell count in PD effluent),"[2]; post-treatment group n = 36, after 7 days, mean (Q25, Q75), pre-treatment 1333.5 (573.50, 4475.00)","28.00 (10.25, 75.00) *10^6/L"
same,PCT,"[2]; secondary indicator, post-treatment group n = 36, after 14 days, mean (Q25, Q75), pre-treatment 0.66 (0.30, 2.99)","0.61 (0.29, 1.15) ng/mL"
same,b-WBC,"[2]; secondary indicator, post-treatment group n = 36, after 14 days, mean (Q25, Q75), pre-treatment 6.40 (5.32, 8.00)","6.20 (5.32, 8.85) *10^9/L"
same,CRP,"[2]; secondary indicator, post-treatment group n = 36, after 14 days, mean (Q25, Q75), pre-treatment 37.50 (10.00, 101.27)","8.30 (3.55, 19.33) mg/L"
same,b-NE%,"[2]; secondary indicator, post-treatment group n = 36, after 14 days, mean (Q25, Q75), pre-treatment 77.60 (67.42, 84.95)","69.10 (59.32, 72.60) %"
same,ALB,"[3]; mean ± SD, pre-treatment 28.66 ± 4.99, SD",28.55 ± 5.97 g/L
same,Scr,"[3]; mean ± SD, pre-treatment 772.45 ± 320.15, SD",739.46 ± 312.14 µmol/L
same,HDL,[3]; pre-treatment 0.88 ± 0.38,0.76 ± 0.55 mmol/L
same,TG,"[3]; pre-treatment 1.25 (1.02, 1.74)","1.21 (1.01, 2.27) mmol/L"
same,LDL,[3]; pre-treatment 1.91 ± 0.81,1.49 ± 0.69 mmol/L
same,Ca,"[3]; pre-treatment 2.02 (1.86, 2.18)","2.08 (1.81, 2.26) mmol/L"
same,TC,[3]; pre-treatment 3.49 ± 1.02,2.97 ± 0.85 mmol/L
same,eGFR,"[3]; pre-treatment 6.35 (4.72, 8.52)","7.30 (4.90, 8.50) mL/min/1.73m^2"
same,Urea,"[3]; pre-treatment 16.20 (12.55, 21.46)","16.00 (10.20, 21.30) mmol/L"
same,Na,[3]; pre-treatment 134.75 ± 5.25,136.40 ± 5.49 mmol/L
same,Serum teicoplanin concentration,[4],10.85 ± 4.92
